System: MRC5-hT fibroblasts expressing HCMV UL38 (glucose-free medium)
Experiment: rescue of cell number (AUC of dose-response) relative to untreated glucose-free control; higher = stronger protection from glucose-starvation-induced cell death
Details: glucose: 0 (glucose-free DMEM); 96 h; dose range 0.001-20, 10-point curve µM
Method: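 MRC5-hT fibroblasts stably expressing HCMV UL38 were seeded in 384-well plates, serum-starved for 24 h, switched to glucose-free DMEM, and pin-transferred with a metabolism-focused compound library as 10-point dose curves (1 nM to 20 µM; n=2). Nuclei were counted by Hoechst imaging 96 h after glucose withdrawal.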

| SMILES | rescue of cell number [%] |
| --- | --- |
| CCCCC[C@H](CC(=O)NO)C(=O)N[C@H](C(=O)N1CCC[C@H]1CO)C(C)C [Actinonin] | -1.46 |
| CCc1ccc(CCOc2ccc(CC3SC(=O)NC3=O)cc2)nc1 (centres undefined) [Pioglitazone] | 69 |
| Cc1cc2c(C(C)C)c(O)c(O)c(C=O)c2c(O)c1-c1c(C)cc2c(C(C)C)c(O)c(O)c(C=O)c2c1O [Gossypol] | 43.9 |
| Oc1ncnc2[nH]ncc12 [Allopurinol] | -22.3 |
| COc1cccc2c(NCc3ccccc3)nc(-n3c(N)nc4ccccc43)nc12 [ML240] | 57.1 |
| CC1(C)CCC(c2ccc(Cl)cc2)=C(CN2CCN(c3ccc(C(=O)NS(=O)(=O)c4ccc(N[C@H](CCN5CCOCC5)CSc5ccccc5)c(S(=O)(=O)C(F)(F)F)c4)cc3)CC2)C1 [ABT_263] | 33.6 |
| CC(=O)OC[C@H]1O[C@@H]([S-])[C@H](OC(C)=O)[C@@H](OC(C)=O)[C@@H]1OC(C)=O.CCP(CC)CC.[Au+] [Auranofin] | -0.594 |
| CCCC(CCC)C(=O)O [Valproic_acid] | -34 |
| Cc1nc2ccc(C(=O)N3CCC4(CC3)CC(=O)c3c(cnn3C(C)C)C4)cc2[nH]1 | 31.8 |
| NS(=O)(=O)c1cc(C(=O)O)c(NCc2ccco2)cc1Cl [Furosemide] | -15.9 |
| C[C@H]1O[C@@H](O[C@H]2[C@@H](O)C[C@H](O[C@H]3[C@@H](O)C[C@H](O[C@H]4CC[C@@]5(C)[C@H](CC[C@@H]6[C@@H]5CC[C@]5(C)[C@@H](C7=CC(=O)OC7)CC[C@]65O)C4)O[C@@H]3C)O[C@@H]2C)C[C@H](O)[C@@H]1O [Digitoxin] | 23.7 |
| CC1(C)CCC2=C(O1)c1ccccc1C(=O)C2=O [beta_Lapachone] | 70.8 |
| CCC(C)SSc1ncc[nH]1 (centres undefined) [PX_12] | -1.42 |
| COc1cc(/C=C/C(=O)CC(=O)/C=C/c2ccc(O)c(OC)c2)ccc1O [Curcumin] | 32 |
| O=C(Oc1ccc([N+](=O)[O-])cc1)N1CCC(C(O)(c2ccc3c(c2)OCO3)c2ccc3c(c2)OCO3)CC1 [JZL184] | 136 |
| Cc1ccc(C(=O)c2cc(O)c(O)c([N+](=O)[O-])c2)cc1 [Tolcapone] | 37.3 |
| O=C(O)CC[N+](=O)[O-] [3_Nitropropionic_acid] | -31.7 |
| CCOC(=O)c1sc(NC(=O)c2ccco2)c(SC#N)c1C [CBR 5884] | 88 |
| C=C1C(=O)O[C@H]2[C@H]1CC/C(C)=C/CC[C@@]1(C)O[C@@H]21 [Parthenolide] | 34.9 |
| CC[C@]1(O)C[C@H]2CN(CCc3c([nH]c4ccccc34)[C@@](C(=O)OC)(c3cc4c(cc3OC)N(C=O)[C@H]3[C@@](O)(C(=O)OC)[C@H](OC(C)=O)[C@]5(CC)C=CCN6CC[C@]43[C@@H]65)C2)C1 [Vincristine_sulfate] | 29.6 |
| CC/C=C\C[C@H]1C(=O)CC[C@@H]1CC(=O)O [Jasmonate] | -19.1 |
| Oc1cccnc1NC(c1ccc(Cl)cc1)c1ccc2cccnc2c1O (centres undefined) [Adaptaquin] | 33.2 |
| Cc1oncc1C(=O)Nc1ccc(C(F)(F)F)cc1 [Leflunomide] | 9.81 |
| Clc1ccc(C(c2ccccc2Cl)C(Cl)Cl)cc1 (centres undefined) [Mitotane] | 9.97 |
| CC[C@H](C)C(=O)O[C@H]1C[C@H](O)C=C2C=C[C@H](C)[C@H](CC[C@@H](O)C[C@@H](O)CC(=O)O)[C@H]21 [Pravastatin] | -35.3 |

| SMILES | rescue of cell number [%] |
| --- | --- |
| NC(=O)c1ncn([C@@H]2O[C@H](CO)[C@@H](O)[C@H]2O)c1O [Mizoribine] | -26.6 |
| OC[C@H]1O[C@H]([S-])[C@H](O)[C@@H](O)[C@@H]1O.[Au+] [Aurothioglucose] | -13.7 |
| CC(=O)N[C@H]1[C@@H](O[C@@H]2O[C@H](CC(O)[C@H]3O[C@@H](n4ccc(=O)[nH]c4=O)[C@H](O)[C@@H]3O)[C@H](O)[C@H](O)[C@H]2NC(=O)/C=C/CC(C)C)O[C@H](CO)[C@@H](N)[C@@H]1O (some centres undefined) [Tunicamycin] | 3.6 |
| [N-]=[N+]=CC(=O)OC[C@H](N)C(=O)O [Azaserine] | -20.4 |
| Nc1ncnc2c1C(=O)N(c1ccc([C@H]3CC[C@H](CC(=O)O)CC3)cc1)CCO2 | -20.9 |
| CCCCCCCCCCCCCCOc1ccc(C(=O)O)o1 [TOFA] | 48.9 |
| c1ccc2c(c1)[I+]c1ccccc1-2 [Diphenyleneiodonium_chloride] | 22.9 |
| CC1=CC(=O)c2c(O)cccc2C1=O [Plumbagin] | 34.3 |
| CC(C)c1nc(N(C)S(C)(=O)=O)nc(-c2ccc(F)cc2)c1/C=C/[C@@H](O)C[C@@H](O)CC(=O)O [Rosuvastatin] | 45.3 |
| O=C(Cc1ccccc1)Nc1nnc(CCSCCc2nnc(NC(=O)Cc3ccccc3)s2)s1 [BPTES] | -24.3 |
| O=C(Nc1ccccc1)Nc1ccc(-c2ccc(C(=O)[C@@H]3CCC[C@H]3C(=O)O)cc2)cc1 | -36.5 |
| COc1ccc(C(CN(C)C)C2(O)CCCCC2)cc1 (centres undefined) [Venlafaxine] | 6.28 |
| Cc1cc(=O)oc2c(C=O)c(O)ccc12 [4mu8C] | 23.6 |
| Cc1ccc(-c2cc(C(F)(F)F)nn2-c2ccc(S(N)(=O)=O)cc2)cc1 [Celecoxib] | 68.1 |
| Cc1cc(/C=C/c2ccc3cc(N(C)C)ccc3[n+]2C)c(C)n1-c1ccccc1 [Pyrvinium_pamoate] | 5.84 |
| CCOc1ccccc1-n1c(C(C)N2CCN(C(=O)COc3ccc(Cl)cc3)CC2)nc2ccccc2c1=O (centres undefined) [Erastin] | 68.6 |
| C=C(C)[C@@H]1CC[C@]2(C(=O)O)CC[C@]3(C)[C@H](CC[C@@H]4[C@@]5(C)CC[C@H](O)C(C)(C)[C@@H]5CC[C@]43C)[C@@H]12 [Betulinic_acid] | 17.8 |
| COc1c(C)c2c(c(O)c1C/C=C(\C)CCC(=O)O)C(=O)OC2 [Mycophenolic_Acid] | 51.6 |
| O=C(O)CSc1nnc(Br)n1-c1ccc(C2CC2)c2ccccc12 [Lesinurad] | -28.1 |
| COP(=O)(CCC(N)C(=O)O)Oc1cccc(CC(=O)O)c1 (centres undefined) [GGsTop] | -24 |
| CCC(C)N(C)C(=O)c1cc2ccccc2c(-c2ccccc2Cl)n1 (centres undefined) | 15.2 |
| O=C(O)c1ccccc1SC1=NS(=O)(=O)c2ccccc21 | -13.9 |
| O=C1CCCC(=O)C1C(=O)c1ccc(C(F)(F)F)cc1[N+](=O)[O-] [Nitisinone] | 5 |
| Cc1ccc(-c2cc(=O)c3ccc4ccccc4c3o2)cc1 | 155 |
| O=C(Cc1cccc(OC(F)(F)F)c1)Nc1ccc(CCCCc2nnc(NC(=O)Cc3ccccn3)s2)nn1 [CB-839] | 38.5 |

| SMILES | rescue of cell number [%] |
| --- | --- |
| N#CSc1cc(SC#N)c(N)nc1N [PR-619] | -9.68 |
| Cc1ccccc1CN1C(=O)C2=C(CCN(Cc3ccccc3)C2)N2CCN=C12 [ONC-201] | 24 |
| COc1cccc2c(NCc3ccccc3)nc(-n3c(N)nc4ccccc43)nc12 [ML_240] | 50.1 |
| c1cc(-c2cnn3cc(-c4ccc(OCCN5CCCCC5)cc4)cnc23)ccn1 [Dorsomorphin] | 66.2 |
| CCCCCCCCCCC[C@@H](C[C@@H]1OC(=O)[C@H]1CCCCCC)OC(=O)[C@H](CC(C)C)NC=O [Orlistat] | -10.4 |
| OC(c1cc(C(F)(F)F)nc2c(C(F)(F)F)cccc12)C1CCCCN1 (centres undefined) [Mefloquine] | -12 |
| O[C@H]1[C@H](O)[C@@H](O)CN2CC[C@H](O)[C@H]12 [Castanospermine] | -30.6 |
| O=c1cc(-c2ccc(O)cc2)oc2cc(O)cc(O)c12 [Apigenin] | 58 |
| NC(=O)c1ncn([C@@H]2O[C@H](CO)[C@@H](O)[C@H]2O)c1N [AICAR] | -30.3 |
| C=C(C)[C@H]1Cc2c(ccc3c2O[C@@H]2COc4cc(OC)c(OC)cc4[C@@H]2C3=O)O1 [Rotenone] | 13.7 |
| CC1(C)C(N(O)C(=O)Nc2ccc(Cl)cc2)N(c2ccc(Cl)cc2)C(=O)N1CC(=O)NN=CC=Cc1ccc([N+](=O)[O-])o1 (centres undefined) [Eeyarestatin_I] | 11.4 |
| C/C=C(/C)C(=O)O[C@H]1C(C)=C2[C@H]([C@@H]1OC(=O)CCCCCCC)[C@@](C)(OC(C)=O)C[C@H](OC(=O)CCC)[C@@]1(O)[C@H]2OC(=O)[C@@]1(C)O [Thapsigargin] | 25.4 |
| Nc1nc(F)nc2c1ncn2[C@@H]1O[C@H](CO)[C@@H](O)[C@@H]1O [Fludarabine] | 103 |
| CC(=O)c1c(O)c(C)c(O)c(Cc2c(O)c3c(c(C(=O)/C=C/c4ccccc4)c2O)OC(C)(C)C=C3)c1O [Rottlerin] | 24.6 |
| COc1cc(/C=C/C(=O)N2CCC=CC2=O)cc(OC)c1OC [Piperlongumine] | 36.8 |
| Cc1c(-c2ccc(-c3ccccc3F)cc2)nc2ccc(F)cc2c1C(=O)O [Brequinar] | 126 |
| CC(=O)c1ccc2c(c1)Nc1ccccc1S2 [ML_171] | 23 |
| O=[N+]([O-])c1ccc(O)c([N+](=O)[O-])c1 [2_4_Dinitrophenol] | 16.9 |
| NCCOCCOCCNC(=O)Cc1ccc(Nc2nc(NCc3ccc(F)cc3)nc(NCC3CCCCC3)n2)cc1 [AP-III-a4] | 33.4 |
| CC[n+]1c(-c2ccccc2)c2cc(N)ccc2c2ccc(N)cc21 [Ethidium_Bromide] | 97.6 |
| CN(C)CC[C@H](CSc1ccccc1)Nc1ccc(S(=O)(=O)NC(=O)c2ccc(N3CCN(Cc4ccccc4-c4ccc(Cl)cc4)CC3)cc2)cc1[N+](=O)[O-] [ABT_737] | -33.6 |
| OC[C@H]1O[C@@H](n2cnc3c2N=CNC[C@H]3O)C[C@@H]1O [Pentostatin] | -17.8 |
| CCOC(=O)N1c2ccc(C(F)(F)F)cc2[C@@H](N(Cc2cc(C(F)(F)F)cc(C(F)(F)F)c2)C(=O)OC)C[C@H]1CC [Torcetrapib] | -13.1 |
| Cc1cn[nH]c1 [Fomepizole] | 81.1 |

Reference: the supplement of paper PMC10790783
